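Cells were grown in 96-well plates and exposed to each compound for 48 hours at five concentrations; endpoints were interpolated linearly between bracketing concentrations, or set to the highest concentration if not reached. TGI denotes the concentration required for complete inhibition of growth.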
Columns and labels:
Test in all cases: growth of human tumour cells (NCI), 48 h
[1] = test system: SR leukemia
[2] = test system: ACHN renal
[3] = test system: COLO 205 colon
[4] = test system: HCT-15 colon
[5] = test system: BT-549 breast
[6] = test system: SK-OV-3 ovarian
[7] = test system: U251 CNS
[8] = test system: OVCAR-3 ovarian
[9] = test system: UACC-62 melanoma
[10] = test system: NCI-H23 lung
[11] = test system: NCI/ADR-RES ovarian
[12] = test system: SK-MEL-2 melanoma
[13] = test system: OVCAR-4 ovarian
[14] = test system: SK-MEL-5 melanoma
[15] = test system: KM12 colon
[16] = test system: HCC-2998 colon
[17] = test system: RPMI-8226 leukemia
[18] = test system: A498 renal
[19] = test system: HL-60(TB) leukemia

SMILES	TGI [1] [µM]	TGI [2] [µM]	TGI [3] [µM]	TGI [4] [µM]	TGI [5] [µM]	TGI [6] [µM]	TGI [7] [µM]	TGI [8] [µM]	TGI [9] [µM]	TGI [10] [µM]	TGI [11] [µM]	TGI [12] [µM]	TGI [13] [µM]	TGI [14] [µM]	TGI [15] [µM]	TGI [16] [µM]	TGI [17] [µM]	TGI [18] [µM]	TGI [19] [µM]
COc1c(C)c(C/C=C(\C)CCCCO[Si](C(C)C)(C(C)C)C(C)C)c(OC)c2ccccc12	> 100	> 100	> 100	> 100	> 100	> 100	> 100	> 100	> 100	> 100	> 100	> 100	> 100	> 100	> 100	–	–	–	–
O=C1/C(=C\c2ccc(Cl)cc2Cl)Sc2scc(-c3cccc([N+](=O)[O-])c3)[n+]21	> 100	12.6	2.56	4.87	18.1	> 56.4	44.1	23.4	21.6	31.5	41.9	30.3	38.1	7.93	26.7	20.5	26.9	> 100	–
COc1ccccc1C1SCC(=O)N1c1ccc(-n2c(-c3ccccc3)nc3ccccc3c2=O)cc1 (stereo unspecified)	> 100	> 100	> 100	> 100	> 100	> 100	> 100	> 100	> 100	> 100	> 100	> 100	56.7	> 100	> 100	> 100	> 100	> 100	–
C/C=C/c1c(O)c(=O)c2c(OC)cc(OC)c3c4c(OC)cc(OC)c5c(=O)c(O)c(/C=C/C)c(c1c23)c54	> 100	13.8	19.1	–	14.3	> 100	47.1	15.5	30.6	23.9	34	24.9	29.5	24.3	31.6	> 100	> 100	> 100	–
COc1cc(OC)cc(Oc2nc3ccccc3nc2C(=O)O)c1	> 100	> 100	> 100	> 100	–	> 100	> 100	> 100	> 100	> 100	> 100	> 100	> 100	> 100	> 100	> 100	> 100	> 100	> 100
CC(=O)C1C(=O)C(=O)N(c2cccc(C)c2C)C1=O (stereo unspecified)	–	> 100	> 100	–	> 100	> 100	–	> 100	> 100	> 100	> 100	> 100	–	> 100	> 100	–	–	–	> 100
O=C(Nc1cc(C(=O)Nc2cccc(S(=O)(=O)O)c2)cc(C(=O)Nc2cccc(S(=O)(=O)O)c2)c1)c1cccc(C(=O)Nc2cc(C(=O)Nc3cccc(S(=O)(=O)O)c3)cc(C(=O)Nc3cccc(S(=O)(=O)O)c3)c2)c1	–	> 100	> 100	> 100	> 100	> 100	> 100	> 100	> 100	> 100	> 100	> 100	> 100	> 100	> 100	> 100	> 100	> 100	65.5
COc1ccc2cc(C(C)C(O)c3cc(F)c(F)c(F)c3F)ccc2c1 (stereo unspecified)	–	> 100	> 100	> 100	> 100	> 100	> 100	> 100	> 100	> 100	> 100	–	> 100	> 100	–	> 100	> 100	> 100	> 100
CCOC(=O)c1c(N)nn2c1cc1cccccc12	–	> 100	78.4	> 100	65.2	> 100	69.6	> 100	50.8	69	57.7	45.1	> 100	69	54.6	> 100	45.7	84.9	> 100
Cc1ccc([N+](=O)[O-])c2c(NCCNC(=O)Cn3ccnc3[N+](=O)[O-])ccnc12	> 100	> 100	> 100	> 100	–	59.7	> 100	52.6	> 100	> 100	> 100	> 100	> 100	> 100	> 100	> 100	> 100	> 100	> 100
C[C@H]1O[C@@H](c2c(O)ccc3ccccc23)C[C@@H](N(C)C)C1O (stereo partly specified)	–	> 100	> 100	> 100	> 100	> 100	> 100	> 100	> 100	> 100	> 100	> 100	> 100	> 100	–	> 100	–	> 100	> 100
COC(OC)C1OC(CO)C(n2cc(C)c(=O)[nH]c2=O)C1O (stereo unspecified)	> 100	> 100	> 100	> 100	> 100	> 100	> 100	> 100	> 100	> 100	> 100	> 100	> 100	> 100	> 100	> 100	> 100	> 100	–
O=[N+]([O-])C(Cl)C(Cl)C(Cl)=C(Cl)Cl (stereo unspecified)	–	31.1	34	39.7	43.9	> 100	> 100	> 56.7	32.9	60.4	> 73.9	–	31.9	24.4	> 100	> 56.7	–	> 100	44.1
C=CCCCC1CCCNC1=O (stereo unspecified)	–	> 100	–	> 100	> 100	> 100	> 100	> 100	> 100	> 100	–	> 100	> 100	> 100	> 100	> 100	> 100	> 100	–
O=c1cc(-c2ccccc2)[nH]c2cc(F)c(F)cc12	> 100	> 35.5	34.7	> 100	–	> 56.1	> 58.6	43.7	> 50.1	22.9	> 19.6	> 75.1	> 100	18.7	> 100	> 30.9	> 100	> 62.8	3.14
CC(C)(C)OC(=O)N(O)[C@@H]1C=C[C@H](n2cnc3c(N)ncnc32)C1	> 100	> 100	> 100	> 100	> 100	> 100	> 100	> 100	> 100	> 100	> 100	> 100	> 100	> 100	> 100	> 100	> 100	> 100	–
C=CC(Cl)(CBr)CCC(Br)=C(C)C (stereo unspecified)	> 100	49.7	33.4	35.9	44.4	–	30.5	55.3	36	68.5	91.2	36.8	46.6	33.7	40.7	44.5	54.5	> 100	–
O=C(O)CN1CCNCCN(CP(=O)(O)O)CC1	> 100	> 100	> 100	> 100	> 100	> 100	> 100	> 100	> 100	> 100	–	> 100	> 100	> 66.5	> 100	> 100	> 100	99.1	8.41
CCOc1ccc(N=NC2C(=O)N(C(=O)CC(=O)Nc3ccccc3OC)N=C2C)cc1 (stereo unspecified)	–	> 100	> 100	> 100	> 48.4	> 87.4	> 63.4	> 100	> 100	> 100	> 100	> 58.7	> 100	> 100	> 100	> 60.3	> 100	> 31.6	22.5
Cc1ccc(/C(O)=C/c2nc3ccccc3oc2=O)cc1	> 100	> 100	> 100	> 100	> 100	–	> 100	> 100	> 100	> 100	> 100	> 100	> 100	46.2	> 100	> 100	–	> 100	–
COc1cc(/C=C2\C[C@H]3[C@@H]4CC=C5C[C@@H](O)CC[C@]5(C)[C@H]4CC[C@]3(C)[C@H]2O)cc(OC)c1OC	–	> 100	42.2	> 100	56.8	> 100	40.8	88	39.3	58.2	> 100	32.5	46.2	21.5	39.4	> 100	> 100	80.6	23
O=C1CCCCC/C1=C\c1ccc(F)cc1	> 100	> 100	> 100	> 100	> 100	> 100	> 100	> 100	> 100	> 100	–	> 100	> 100	> 100	> 100	> 100	> 100	> 100	–
Cc1ccc2c(c1)C(=O)/C(=C\c1ccccc1)CCS2(=O)=O	> 24.7	24.2	42	19.7	> 37.2	60.8	31	39.9	31.9	40.7	> 52.2	89.8	46.5	29.4	28.2	28.6	–	52.1	–
CC1Cc2c(Br)nc(N)nc2NC1=O (stereo unspecified)	> 100	> 100	> 100	> 100	> 100	> 100	> 100	> 100	> 100	> 100	> 100	> 100	> 100	> 100	> 100	> 100	> 100	> 100	–
N#Cc1c2ccc([N+](=O)[O-])cc2c(=O)n2c1sc1ccc(C(F)(F)F)cc12	–	> 100	> 100	> 100	> 100	> 100	> 100	> 100	–	> 100	> 100	–	> 100	> 100	> 100	–	> 100	> 100	–
O=C(/C=C(\O)c1ccc(Cl)cc1)C(=O)N=Nc1c(O)[nH]c2ccc(Br)cc12	–	> 100	> 100	> 100	> 100	> 100	> 100	95.9	> 100	> 100	> 100	41.2	> 100	> 100	> 100	> 100	92.3	74.3	–
CC1CN=C(Nc2ccc(F)cc2F)S1 (stereo unspecified)	> 100	> 100	> 100	> 100	–	> 100	> 100	> 100	–	> 100	> 100	> 100	> 100	> 100	> 100	> 100	> 100	> 100	> 100
